The subject of series [1] is hyperlipoidemia model of Goldenhamsters (blood plasma TC, TG, HDL-C, LDL-C). Description: Pharmacological test group 1: effects on blood lipid levels of Goldenhamsters in a hyperlipoidemia model. The class given is in vivo. The note with it: for HDL-C, after administration / LDL-C, after administration / TC, after administration / TG, after administration: 40 mg/kg intragastric, 1 week, high-lipid feed continued, asterisks = P vs before administration.

Series [2] deals with hyperlipoidemia model of Goldenhamsters (blood plasma TC, HDL-C, LDL-C). Description: Pharmacological test group 2: effects on blood lipid levels of Goldenhamsters in hyperlipoidemia model. The class given is in vivo. As to conditions: for effect on HDL-C, in comparison with the results before administration (in words) / effect on LDL-C, in comparison with the results before administration (in words) / effect on TC, in comparison with the results before administration (in words): t test after vs before administration; for HDL-C, before administration / LDL-C, before administration / TC, before administration: baseline of the group before administration, high-lipid feed 2 weeks, 6 animals. The text has this:
(§1) Animals: 120 male Goldenhamsters, aged 8 weeks, body weight 80-100 g, provided by Vital River Laboratories, Beijing.
Kits: The kits for total cholesterol (TC) and high density lipoprotein cholesterol (HDL-C) were provided by SYSMEX, and the kits for low density lipoprotein cholesterol (LDL-C) were provided by Shanghai Kehua Bio-engineering Co., Ltd.
(§2) Apparatus: SYSMEX Automatic Biochemistry Analyzer, Bechman centrifuge, Setoris balance.
(§3) The animals were acclimatized and fed for 1 week, ad lib, light cycle was 10 h/14 h, and then feeds with high lipid content were fed to the animals (formulation: 0.3% cholesterol, 20% palm oil, and 79.7% basic feeds). The animals were fed for 2 weeks, and were fasted at 4:00 pm on the 14th day (fasted for 16 h). On the 15th day, the animals were anaesthetized with ethyl ether, weighted, and then 0.5 ml blood was collected from vena orbitalis posterior. The blood was anticoagulated with heparin, and was centrifugated at 5000 rpm for 10 min. The blood plasma was taken, and the levels of TC, HDL-C, and LDL-C in blood plasma were determined using automatic biochemistry analyzer.
During the administration, feeds with high lipid content were continuously fed to the animals. The animals were fed for 1 week, and were fasted at 4:00 pm on the 7th day. On the 8th day, the animals were anaesthetized with ethyl ether, weighted, and then 0.5 ml blood was collected from vena orbitalis posterior. The blood was anticoagulated with heparin, and was centrifugated at 5000 rpm for 10 min. The blood plasma was taken, and the levels of TC, HDL-C, and LDL-C in blood plasma were determined using automatic biochemistry analyzer.
(§4) The results were represented by x±s, and t test was employed for comparing the results obtained before and after administration.

Series [3] has as its system hyperlipoidemia model of Goldenhamsters (blood plasma TC, TG, HDL-C, LDL-C). In words: Pharmacodynamic test group 3: effects on blood lipid levels of Goldenhamsters in a hyperlipoidemia model. The class given is in vivo. The note with it: for HDL-C, after administration / LDL-C, after administration / TC, after administration / TG, after administration: 40 mg/kg intragastric, 1 week, high-lipid feed continued, asterisks = P vs before administration; for HDL-C, after administration / LDL-C, after administration / TC, after administration / TG, after administration / HDL-C, before administration / LDL-C, before administration / TC, before administration / TG, before administration: blood plasma, x±s; for effect on HDL-C, in comparison with the results before administration (in words) / effect on LDL-C, in comparison with the results before administration (in words) / effect on TC, in comparison with the results before administration (in words) / effect on TG, in comparison with the results before administration (in words): t test after vs before administration; for HDL-C, before administration / LDL-C, before administration / TC, before administration / TG, before administration: baseline of the group before administration, high-lipid feed 2 weeks, 6 animals.
Excerpt: as §1
Kits: The kits for total cholesterol (TC), triglyceride (TG), and high density lipoprotein cholesterol (HDL-C) were provided by SYSMEX, and the kits for low density lipoprotein cholesterol (LDL-C) were provided by Shanghai Kehua Bio-engineering Co., Ltd.
as §2
as §3, with “pm of” for “pm on”, “h). At” for “h). On”, “TC, TG,” for “TC,”
During the administration, feeds with high lipid content were continuously fed to the animals. The animals were fed for 1 week, and were fasted at 4:00 pm of the 7th day. At the 8th day, the animals were anaesthetized with ethyl ether, weighted, and then 0.5 ml blood was collected from vena orbitalis posterior. The blood was anticoagulated with heparin, and was centrifugated at 5000 rpm for 10 min. The blood plasma was taken, and the levels of TC, TG, HDL-C, and LDL-C in blood plasma were determined using automatic biochemistry analyzer.
as §4

The nature of series [4]: Solubility in water (remark on the test drugs). The class given is physicochemical. The note with it: formulated with 20% solutol.
The conditions of series [5]: background statement; cited from earlier work.
Setting [6] is: 40 mg/kg, t test after vs before administration.
[7] abbreviates: 40 mg/kg intragastric, 1 week, high-lipid feed continued, blood plasma, x±s, asterisks = P vs before administration.
The mark [8] stands for this setting: baseline of the group before administration, high-lipid feed, blood plasma, x±s, 6 animals.

Data on three molecules can be found in patent publication US9487470B2, “4-((substituted phenyl) difluoromethyl) phenoxy carboxylic acid derivative, and preparation method and uses thereof” (Zhejiang Hisun Pharmaceutical Co., Ltd., priority 2012, dated 2016).

For the molecule `CC(C)OC(=O)C(C)(C)Oc1ccc(C(F)(F)c2ccc(Cl)cc2)cc1` [HS003-004, isopropyl 2-(4-((4-chlorophenyl)difluoromethyl)phenoxy)-2-methylpropionate], the “regulating effects on the levels of blood lipid (conclusion from table 2)” value in series [1] (40 mg/kg) was “tend to the effects of significantly decreasing TG, TC, and LDL-C”. For the same molecule, in series [1] (blood plasma, x±s), the “HDL-C, after administration” value is on record as 3.7 ± 0.31; the “LDL-C, after administration” value is 1.27 ± 0.26; the “TC, after administration” value amounted to 9.16 ± 1.22; the “TG, after administration” value is given as 1.30 ± 0.23. Also, in series [1] (setting [6]), the “effect on HDL-C, in comparison with the results before administration (in words)” value (“effect on HDL-C, in comparison” below) is “increases”; the “effect on TC, in comparison with the results before administration (in words)” value (“effect on TC, in comparison” for short) is reported as “significantly decreases”; the “effect on TG, in comparison with the results before administration (in words)” value (from here on “effect on TG, in comparison”) is given as “significantly decreases”. For the same molecule, in series [2] (40 mg/kg), the “blood lipid-regulating effects (conclusion from table 3)” value is “excellent blood lipid-regulating effects”; the “effect on HDL-C, in comparison” value was “increases”; the “effect on LDL-C, in comparison with the results before administration (in words)” value (from here on “effect on LDL-C, in comparison”) is listed as “significantly decreases”; the “effect on TC, in comparison” value is on record as “significantly decreases”. In series [2] (setting [7]), the “HDL-C, after administration” value worked out at 1.83 ± 0.18; the “LDL-C, after administration” value is 1.97 ± 0.66; the “TC, after administration” value is recorded as 9.86 ± 0.83. The “therapeutic effect compared with fenofibrate (conclusion from table 3)” value in series [2] (40 mg/kg, fenofibrate 40 mg/kg) was “outstanding therapeutic effects, and are superior to fenofibrate”. In addition, in series [2] (blood plasma, x±s), the “HDL-C, before administration” value is recorded as 1.61 ± 0.21; the “LDL-C, before administration” value came to 3.26 ± 1.58; the “TC, before administration” value was 13.82 ± 2.69. For the same molecule, in series [3] (40 mg/kg), the “blood lipid-regulating effects (conclusion from table 4)” value is “excellent blood lipid-regulating effects”; the “effect on HDL-C, in comparison” value is “increases”; the “effect on LDL-C, in comparison” value was “significantly decreases”; the “effect on TC, in comparison” value is listed as “significantly decreases”. Also, the “effect on TG, in comparison” value in series [3] (40 mg/kg) is on record as “significantly decreases”. In series [3], the “HDL-C, after administration” value turned out to be 3.16 ± 0.24; the “LDL-C, after administration” value is recorded as 1.86 ± 0.78; the “TC, after administration” value came to 9.49 ± 1.82; the “TG, after administration” value is 2.22 ± 1.61. Moreover, in series [3], the “HDL-C, before administration” value was found to be 2.54 ± 0.22; the “LDL-C, before administration” value is 3.54 ± 0.71; the “TC, before administration” value worked out at 12.68 ± 1.8; the “TG, before administration” value came out at 3.94 ± 1.07. In addition, the “therapeutic effect compared with fenofibrate (conclusion from table 4)” value in series [3] (40 mg/kg, fenofibrate 40 mg/kg) was “outstanding therapeutic effects, and are superior to fenofibrate”. Besides, in series [4], the solubility in water result was “insoluble”.

As to `CC(C)OC(=O)C(C)(C)Oc1ccc(C(F)(F)c2ccccc2)cc1` [HS003-008, Isopropyl 2-(4-(phenyldifluoromethyl)phenoxy)-2-methylpropionate], the “regulating effects on the levels of blood lipid (conclusion from table 2)” value in series [1] (40 mg/kg) is “tend to the effects of significantly decreasing TG, TC, and LDL-C”. In series [1] (blood plasma, x±s), the “HDL-C, after administration” value is listed as 3.46 ± 0.26; the “LDL-C, after administration” value was 1.0 ± 0.45; the “TC, after administration” value was 9.85 ± 1.48; the “TG, after administration” value is 1.22 ± 0.84. In series [1] (setting [6]), the “effect on LDL-C, in comparison” value is on record as “significantly decreases” and the “effect on TG, in comparison” value is reported as “significantly decreases”. In series [3] (40 mg/kg), the “blood lipid-regulating effects (conclusion from table 4)” value is reported as “excellent blood lipid-regulating effects”; the “effect on HDL-C, in comparison” value is “increase”; the “effect on LDL-C, in comparison” value is “significantly decrease”; the “effect on TC, in comparison” value was “significantly decrease”. For the same molecule, the “effect on TG, in comparison” value in series [3] (40 mg/kg) was “significantly decrease”. In addition, in series [3], the “HDL-C, after administration” value was 3.4 ± 0.11; the “LDL-C, after administration” value came out at 2.11 ± 0.89; the “TC, after administration” value came to 10.84 ± 1.83; the “TG, after administration” value worked out at 2.49 ± 0.99. Also, in series [3], the “HDL-C, before administration” value is listed as 2.86 ± 0.14; the “LDL-C, before administration” value was determined as 3.18 ± 0.81; the “TC, before administration” value is recorded as 12.85 ± 2; the “TG, before administration” value was determined as 3.93 ± 1.09. Further, the solubility in water result in series [4] is “insoluble”.

Regarding fenofibrate [reference compound], in series [1] (blood plasma, x±s), the “HDL-C, after administration” value is on record as 4.11 ± 0.15; the “LDL-C, after administration” value is recorded as 1.15 ± 0.3; the “TG, after administration” value amounted to 1.13 ± 0.47. For the same molecule, in series [1] (setting [6]), the “effect on HDL-C, in comparison” value is listed as “increases” and the “effect on TG, in comparison” value is “significantly decreases”. Further, in series [1] (setting [8]), the “HDL-C, before administration” value was found to be 3.16 ± 0.24; the “LDL-C, before administration” value is given as 1.35 ± 0.25; the “TG, before administration” value is on record as 2.39 ± 1. Besides, the “LDL-C, after administration” value in series [2] (setting [7]) is 2.45 ± 0.8. For the same molecule, in series [2] (40 mg/kg), the “effect on HDL-C, in comparison” value is “increases”; the “effect on LDL-C, in comparison” value was “significantly decrease”; the “effect on TC, in comparison” value is given as “significantly decrease”. In series [2] (blood plasma, x±s), the “HDL-C, before administration” value turned out to be 1.46 ± 0.29; the “LDL-C, before administration” value is on record as 4.24 ± 1.51; the “TC, before administration” value amounted to 13.74 ± 2.71. Besides, the “adverse effects to gastrointestinal tract” value in series [5] is given as “significant adverse effects to gastrointestinal tract”.
